# Patent publication US20230355599A1, “BIOMARKERS FOR CBL, AND COMPOSITIONS AND METHODS FOR THEIR USE” (NURIX THERAPEUTICS, INC., priority 2022, published 2023)
# Legend:
# phosphorylated ZAP70 = test: Phosphorylated ZAP70 in circulating CD8+ T cells of patients, Phase 1 trial (flow cytometry); type: in vivo, human
# Method: [The procedure below names another target; the source lists this target under the same test.] (§1) Pharmacodynamic analysis of the proximal biomarker, phosphorylated HS1 is assessed in circulating CD8^+ T cells from patients that are being administered doses ranging from 5 to 50 mg of Compound 23 once daily and is being used to assess target engagement of Compound 23 as part of the dose/exposure-response profile. Whole blood is collected longitudinally and added into two types of TruCulture (Myriad) tubes. One tube contains media, and the second tube contains anti-CD3 and anti-CD28, which are subsequently crosslinked to induce cellular stimulation for pharmacodynamic analysis. Phosphorylated HS1 is assessed by flow cytometry pre and post dose on Cycle 1 Day 1 (C1D1) and Cycle 2 Day 1 (C2D1) to characterize single/multiple dose PD profiles.
# (§2) % Maximal phosphorylated signal and % AUC are two commonly used parameters to assess the pharmacodynamic effects of drugs.
# (§3) % Maximal phosphorylated signal refers to the maximum amount of a specific protein that becomes phosphorylated (i.e., modified by the addition of a phosphate group) in response to a drug or other stimulus. This parameter is often used to measure the activation of signaling pathways that are important for various cellular processes, including cell growth and differentiation, immune response, and metabolism.
# (§4) % AUC, on the other hand, refers to the area under the curve (AUC) over time, expressed as a percentage of the maximum possible AUC. In summary, both % maximal phosphorylated signal and % AUC are useful parameters to assess the pharmacodynamic effects of drugs. % maximal phosphorylated signal is a measure of the activation of signaling pathways, while % AUC reflects the duration of the effect on PD signals. Both parameters can be used to evaluate the potency and duration of a drug's pharmacodynamic effects.
# phosphorylated HS1 = test: Phosphorylated HS1 in circulating CD8+ T cells of patients, Phase 1 trial (flow cytometry); type: in vivo, human
# Method: as §1, §2, §3, §4
# phosphorylated PLCγ2 [1] = test: Phosphorylated PLCγ2 in cynomolgus macaque CD8+ T cells from whole blood in vitro (flow cytometry); type: cell-based; details: Macaca fascicularis, T-cell, whole blood from six cynomolgus macaques, 2 hrs 37° C., 2 μg/mL anti-CD3 & anti-CD28 + crosslinker 60 minutes, read-out: Average mean EC50±standard deviation, phosphorylated PLCγ2
# Method: To assess these candidate clinical proximal biomarkers of Cbl-b inhibition on T cells, pharmacodynamic analysis was performed. Whole blood was obtained from cynomolgus macaque donors, then incubated with increasing concentrations of Compound 23. The response to Cbl-b inhibition on phosphorylated HS1, ZAP70 and PLCγ2 was measured in CD8^+ T cells using flow cytometry. This technique is highly quantitative and can measure multiple phosphorylation markers in different cell populations within the same sample.
# DMSO (Dimethyl sulfoxide) was used to reconstitute Compound 23. Final concentration of DMSO was 0.05% in media for in vitro assays. […]
# Stained cells were run on an Attune NxT Acoustic Focusing Flow Cytometer (Thermo Fisher, cat. No. A29004), and data was analyzed using FlowJo (v10.6.1) and GraphPad Prism (v8.00) software. Single lymphocytes were gated for CD8^+ cells (CD45^+/CD8^+) cells, and population frequencies were calculated for each population. The data is quantified by the percent positive. […] As protein becomes phosphorylated the fluorescence increases resulting in a larger fraction of the cells entering that gate. Each population was evaluated for % positive pY759-PLCγ2, pY397-HS1 levels, pY319/Syk (Y352)-ZAP70 levels.
# phosphorylated PLCγ2 [2] = test: Phosphorylated PLCγ2 in circulating CD8+ T cells of patients, Phase 1 trial (flow cytometry); type: in vivo, human
# Method: [The procedure below names another target; the source lists this target under the same test.] as §1, §2, §3, §4
# [3] = 5 mg once daily, n=1, cycle 1, day 1
# [4] = 15 mg once daily, n=12, cycle 1, day 1
# [5] = 25 mg once daily, n=7, cycle 1, day 1
# [6] = 50 mg once daily, n=2, cycle 1, day 1
compound,measurement,setting,value
C[C@H]1CCCN(Cc2cc3c(c(C(F)(F)F)c2)CN(c2cccc([C@]4(c5nncn5C)C[C@@H](C)C4)c2)C3=O)C1 [Compound 23],% of phosphorylated ZAP70 expressing CD8+ T cells (maximal),phosphorylated ZAP70; [3],47%
same,phosphorylated ZAP70 AUC,phosphorylated ZAP70; [3],734
same,% of phosphorylated ZAP70 expressing CD8+ T cells (maximal),phosphorylated ZAP70; [4],83%
same,phosphorylated ZAP70 AUC,phosphorylated ZAP70; [4],1641
same,% of phosphorylated ZAP70 expressing CD8+ T cells (maximal),phosphorylated ZAP70; [5],82%
same,phosphorylated ZAP70 AUC,phosphorylated ZAP70; [5],1506
same,% of phosphorylated ZAP70 expressing CD8+ T cells (maximal),phosphorylated ZAP70; [6],85%
same,phosphorylated ZAP70 AUC,phosphorylated ZAP70; [6],1870
same,trend of maximal % pZAP70 with PK,"phosphorylated ZAP70; not statistically significant, p=0.06",Positive trend
same,% of phosphorylated HS1 expressing CD8+ T cells (maximal),phosphorylated HS1; [3],35%
same,phosphorylated HS1 AUC,phosphorylated HS1; [3],578
same,% of phosphorylated HS1 expressing CD8+ T cells (maximal),phosphorylated HS1; [4],46%
same,phosphorylated HS1 AUC,phosphorylated HS1; [4],787
same,% of phosphorylated HS1 expressing CD8+ T cells (maximal),phosphorylated HS1; [5],53%
same,phosphorylated HS1 AUC,phosphorylated HS1; [5],876
same,% of phosphorylated HS1 expressing CD8+ T cells (maximal),phosphorylated HS1; [6],52%
same,phosphorylated HS1 AUC,phosphorylated HS1; [6],1055
same,trend of AUC % pHS1 with PK,"phosphorylated HS1; Pearson correlation with PK parameters (AUC and CMAX), statistically significant slope p=0.02",positive trend
same,EC50,phosphorylated PLCγ2 [1],121 ± 37.4 nM
same,trend of maximal or AUC % pPLCγ2 with PK,phosphorylated PLCγ2 [2],No apparent trend
same,% of phosphorylated PLCγ2 expressing CD8+ T cells (maximal),phosphorylated PLCγ2 [2]; [3],56%
same,phosphorylated PLCγ2 AUC,phosphorylated PLCγ2 [2]; [3],1003
same,% of phosphorylated PLCγ2 expressing CD8+ T cells (maximal),phosphorylated PLCγ2 [2]; [4],81%
same,phosphorylated PLCγ2 AUC,phosphorylated PLCγ2 [2]; [4],1616
same,% of phosphorylated PLCγ2 expressing CD8+ T cells (maximal),phosphorylated PLCγ2 [2]; [5],85%
same,phosphorylated PLCγ2 AUC,phosphorylated PLCγ2 [2]; [5],1807
same,% of phosphorylated PLCγ2 expressing CD8+ T cells (maximal),phosphorylated PLCγ2 [2]; [6],75%
same,phosphorylated PLCγ2 AUC,phosphorylated PLCγ2 [2]; [6],1706
